Experiments:
[1] = molecular target: T1, YAP-TEAD interaction (full length human TEAD1-Gal4 fusion, full length YAP mutant S127A, S397A) (UniProt P04386+P28347); assay: Cell-based TEAD-GAL4 transactivation assay (luciferase reporter, HEK293); details: HEK293 cells, compounds 0.1 μM to 30 μM, 24 h; for IC50: concentration that inhibited the luciferase activity by 50%
T1 construct: The TEAD1 construct was prepared by cloning the full length human TEAD1 cDNA; expressed in transfected cells; host or cells: HEK293 GripTite 293 MSR (Invitrogen R795-07), transiently transfected with pSG5_CMV plasmids
T1 sequence (P04386+P28347 fused, stated change not applied): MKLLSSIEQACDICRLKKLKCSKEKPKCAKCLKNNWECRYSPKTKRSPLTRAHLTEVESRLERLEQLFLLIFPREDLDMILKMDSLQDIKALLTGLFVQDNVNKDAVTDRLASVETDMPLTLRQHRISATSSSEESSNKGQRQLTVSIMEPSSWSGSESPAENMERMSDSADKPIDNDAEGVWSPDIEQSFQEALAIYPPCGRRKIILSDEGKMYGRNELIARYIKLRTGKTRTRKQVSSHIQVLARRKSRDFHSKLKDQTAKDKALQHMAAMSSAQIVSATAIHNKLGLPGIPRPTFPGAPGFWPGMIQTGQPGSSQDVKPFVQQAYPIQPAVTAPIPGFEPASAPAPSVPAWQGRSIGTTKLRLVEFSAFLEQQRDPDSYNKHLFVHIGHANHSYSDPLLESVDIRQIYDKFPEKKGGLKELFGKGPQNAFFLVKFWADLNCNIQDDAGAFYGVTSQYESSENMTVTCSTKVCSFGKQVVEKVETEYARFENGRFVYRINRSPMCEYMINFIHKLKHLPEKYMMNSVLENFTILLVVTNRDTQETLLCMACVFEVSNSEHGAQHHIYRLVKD
Experimental: To identify inhibitors of YAP-TEAD interaction, a transient transactivation assays was carried out into HEK293 cell line (HEK293 GripTite™ 293 MSR (Invitrogen R795-07)) using plasmids containing the full length TEAD1 sequences, the full length YAP mutant (S127A, S397A) and a luciferase gene reporter. All expression constructs were performed into pSG5 backbone plasmid in which the SV40 promoter was replaced by the CMV promoter. The TEAD1 construct was prepared by cloning the full length human TEAD1 cDNA in fusion with the Gal4 DNA Binding Domain (AA 1-148) into pSG5_CMV to create the TEAD1(FL)_hum_pSG5Gal4_CMV. The full length YAP mutant (S127A, S397A) was also cloned into pSG_5 CMV to create the YAP(FL)_hum_pSG5_[…]. The reporter plasmid GAL4(5×RE)_[…]_pGL3-Basic contains 5 copies of the GAL4 responsive element (5′-TCGGAGGACAGTACTCC-3′) upstream of the thymidine kinase (TK) promoter (−105/+56) inserted in a pGL3-Basic vector. To evaluate the selectivity of our compounds in blocking the YAP-TEAD interaction, a counter-screening protein-protein interaction transactivation assays was also established. Briefly, two other expression plasmids, the pBD-P53 which express the P53 (AA 72-390) in fusion with Gal4 and the pAD-SV40T which express the SV40 large T antigen (AA 84-708,AgT), were created. HEK293 cells were seeded at 5×10^4 cells/well in 96 well plates (assay plates) in DMEM medium containing 4.5 g/L D-glucose, 10% high inactivated (HI) fetal bovine serum 1% Glutamax, 1% non-essential amino acid and 1% sodium pyruvate and 0.5% penicillin/streptomycin 37° C. in a humidified atmosphere of 8% CO2. After 24 h, transfections are performed using Jet-PEI as transfectant (101B-010 Polyplus Transfection), according to the instructions of the manufacturer (N/P=10) and a ratio YAP/TEAD=10 (per well: 50 ng of YAP(FL), 5 ng of TEAD(FL) and 50 ng of reporter plasmid). Six hours after cell transfection, the plates (‘assay plate’) were washed with 100 μl PBS per well and cell were treated with compounds in semi-log from 0.1 μM to 30 μM or DMSO 0.5% as control in DMEM 4.5 g/L D-Glucose without phenol red, 0.3% BSA, 1% glutamax, 1% NEAA, 1% sodium pyruvate. Twenty-four hours later, the luciferase activity was determined after addition of 100 μl of Steady Glo™ luciferase assay system (Promega E2550) according to the manufacturer's directions. Luciferase activity in cell extracts is measured by reading luminescence using the Envision device.
The cellular response was determined by fitting the concentration response curves using a 3-parameter curve fit equation and determining the concentration that inhibited the luciferase activity by 50%.

melting point [°C]	SMILES	IC50 [1] [µM]	further results
258 to 261	CN(/N=C/c1ccc(N2CCOCC2)cc1)C1=NS(=O)(=O)c2ccccc21 [Ex 3, N-methyl-N-[(E)-(4-morpholinophenyl)methyleneamino]-1,1-dioxo-1,2-benzothiazol-3-amine]		
281 to 300	CN(/N=C/c1cnc(N2CCOCC2)s1)C1=NS(=O)(=O)c2ccccc21 [Ex 7, N-methyl-N-[(E)-(2-morpholinothiazol-5-yl)methyleneamino]-1,1-dioxo-1,2-benzothiazol-3-amine]		
228 to 231	CNC(=O)Cc1ccc(/C=N/N(C)C2=NS(=O)(=O)c3ccccc32)cc1OC [Ex 20, 2-[4-[(E)-[(1,1-dioxo-1,2-benzothiazol-3-yl)-methyl-hydrazono]methyl]-2-methoxy-phenyl]-N-methyl-acetamide]		
> 298	CC1NC(=O)c2ccc(/C=N/N(C)C3=NS(=O)(=O)c4ccccc43)cc21 (centres unmarked) [Ex 31, 5-[(E)-[(1,1-dioxo-1,2-benzothiazol-3-yl)-methyl-hydrazono]methyl]-3-methyl-isoindolin-1-one]		
> 295	CN(/N=C/c1ccc2c(c1)C(C)(C)NC2=O)C1=NS(=O)(=O)c2ccccc21 [Ex 32, 5-[(E)-[(1,1-dioxo-1,2-benzothiazol-3-yl)-methyl-hydrazono]methyl]-3,3-dimethyl-isoindolin-1-one]		
> 300	CN(/N=C/c1ccc2c(c1)C(C)(C)C(=O)N2)C1=NS(=O)(=O)c2ccccc21 [Ex 33, 5-[(E)-[(1,1-dioxo-1,2-benzothiazol-3-yl)-methyl-hydrazono]methyl]-3,3-dimethyl-indolin-2-one]		
288 to 289	CCC1(CC)C(=O)Nc2ccc(/C=N/N(C)C3=NS(=O)(=O)c4ccccc43)cc21 [Ex 34, 5-[(E)-[(1,1-dioxo-1,2-benzothiazol-3-yl)-methyl-hydrazono]methyl]-3,3-diethyl-indolin-2-one]		
313 to 315	CN(/N=C/c1ccc2[nH]nnc2c1)C1=NS(=O)(=O)c2ccccc21 [Ex 35, N-[(E)-1H-benzotriazol-5-ylmethyleneamino]-N-methyl-1,1-dioxo-1,2-benzothiazol-3-amine]		
219 to 221	CN(/N=C/c1ccc(F)c(Cl)n1)C1=NS(=O)(=O)c2ccccc21 [Ex 37, N-[(E)-(6-chloro-5-fluoro-2-pyridyl)methyleneamino]-N-methyl-1,1-dioxo-1,2-benzothiazol-3-amine]		
	COc1cc(/C=N/N(CC(C)C)C2=NS(=O)(=O)c3ccc(B(O)O)cc32)ccc1F [Ex 94, [3-[[(E)-(4-fluoro-3-methoxy-phenyl)methyleneamino]-isobutyl-amino]-1,1-dioxo-1,2-benzothiazol-5-yl]boronic acid]	3.31	
	COc1cc(/C=N/N(CC(C)C)C2=NS(=O)(=O)c3ccc(OCB(O)O)cc32)ccc1F [Ex 95, [3-[[(E)-(4-fluoro-3-methoxy-phenyl)methyleneamino]-isobutyl-amino]-1,1-dioxo-1,2-benzothiazol-5-yl]oxymethylboronic acid]	1.35	
	CCC1(CC)C(=O)Nc2ccc(/C=N/N(CC(C)C)C3=NS(=O)(=O)c4cc(O)ccc43)cc21 [Ex 96, 3,3-diethyl-5-[(E)-[(6-hydroxy-1,1-dioxo-1,2-benzothiazol-3-yl)-isobutyl-hydrazono]methyl]indolin-2-one]	10.4	
	CCOc1ccc2c(c1)S(=O)(=O)N=C2N(CC(C)C)/N=C/c1ccc2c(c1)C(CC)(CC)C(=O)N2 [Ex 97, 5-[(E)-[(6-ethoxy-1,1-dioxo-1,2-benzothiazol-3-yl)-isobutyl-hydrazono]methyl]-3,3-diethyl-indolin-2-one]	2.77	
	CCC1(CC)C(=O)Nc2ccc(/C=N/N(CC(C)C)C3=NS(=O)(=O)c4cc(OC)ccc43)cc21 [Ex 98, 3,3-diethyl-5-[(E)-[isobutyl-(6-methoxy-1,1-dioxo-1,2-benzothiazol-3-yl) hydrazono]methyl]indolin-2-one]	3.92	
	CCC1(CC)C(=O)Nc2ccc(/C=N/N(CC(C)C)C3=NS(=O)(=O)c4cc(OC(C)C)ccc43)cc21 [Ex 99, 3,3-diethyl-5-[(E)-[isobutyl-(6-isopropoxy-1,1-dioxo-1,2-benzothiazol-3-yl)hydrazono]methyl]indolin-2-one]	4.14	
	COc1cc(/C=N/N(C2=NS(=O)(=O)c3cc(B(O)O)ccc32)C(C)C)ccc1F [Ex 102, [3-[[(E)-(4-fluoro-3-methoxy-phenyl)methyleneamino]-isopropyl-amino]-1,1-dioxo-1,2-benzothiazol-6-yl]boronic acid]	3.01	
	COc1cc(/C=N/N(CC(C)C)C2=NS(=O)(=O)c3cc(OCC(N)=O)ccc32)ccc1F [Ex 104, 2-[[3-[[(E)-(4-fluoro-3-methoxy-phenyl)methyleneamino]-isobutyl. amino]-1,1-dioxo-1,2-benzothiazol-6-yl]oxy]acetamide]		Max Act. (%), TEAD-GAL4 Transactivation activity ([1]; luciferase activity): 72%
	CNC(=O)COc1ccc2c(c1)C(N(CC(C)C)/N=C/c1ccc(F)c(OC)c1)=NS2(=O)=O [Ex 105, 2-[[3-[[(E)-(4-fluoro-3-methoxy-phenyl)methyleneamino]-isobutyl-amino]-1,1-dioxo-1,2-benzothiazol-5-yl]oxy]-N-methyl-acetamide]	4.94	
	COc1cc(/C=N/N(CC(C)C)C2=NS(=O)(=O)c3cc(OCB4OC(=O)CN(C)CC(=O)O4)ccc32)ccc1F [Ex 106, 2-[[3-[[(E)-(4-fluoro-3-methoxy-phenyl)methyleneamino]-isobutyl-amino]-1,1-dioxo-1,2-benzothiazol-6-yl]oxymethyl]-6-methyl-1,3,6,2-dioxaza-borocane-4,8-dione]	0.94	
	CSc1cc(/C=N/N(CC(C)C)C2=NS(=O)(=O)c3ccccc32)ccc1F [Ex 107, N-[(E)-(4-fluoro-3-methylsulfanyl-phenyl)methyleneamino]-N-isobutyl-1,1-dioxo-1,2-benzothiazol-3-amine]	2.14	
	COc1cc(C2=NN(C3=NS(=O)(=O)c4cc(B(O)O)ccc43)C(C)CC2)ccc1F (centres unmarked) [Ex 109, [3-[6-(4-fluoro-3-methoxy-phenyl)-3-methyl-4,5-dihydro-3H-pyridazin-2-yl]-1,1-dioxo-1,2-benzothiazol-6-yl]boronic acid]	0.7	
	COc1cc(C2=NN(C3=NS(=O)(=O)c4ccccc43)CC(C)(C)C2)ccc1F [Ex 110, 3-[6-(4-fluoro-3-methoxy-phenyl)-4,4-dimethyl-3,5-dihydropyridazin-2-yl]-1,2-benzothiazole 1,1-dioxide]	3.23	
	COCn1c(=O)n(C2CCC2)c2cc(/C=N/N(C)C3=NS(=O)(=O)c4ccccc43)ccc21 [Ex 111, 3-cyclobutyl-5-[(E)-[(1,1-dioxo-1,2-benzothiazol-3-yl)-methyl-hydrazono]methyl]-1-(methoxymethyl)benzimidazol-2-one]	8.57	
	CN(/N=C/c1ccc2c(c1)n(C1CCC1)c(=O)n2COC(=O)C(C)(C)C)C1=NS(=O)(=O)c2ccccc21 [Ex 113, [3-cyclobutyl-5-[(E)-[(1,1-dioxo-1,2-benzothiazol-3-yl)-methyl-hydrazono]methyl]-2-oxo-benzimidazol-1-yl]methyl 2,2-dimethylpropanoate]	4	
	CCCC(=O)OCn1c(=O)n(C2CCC2)c2cc(/C=N/N(C)C3=NS(=O)(=O)c4ccccc43)ccc21 [Ex 114, [3-cyclobutyl-5-[(E)-[(1,1-dioxo-1,2-benzothiazol-3-yl)-methyl-hydrazono]methyl]-2-oxo-benzimidazol-1-yl]methyl butanoate]	4.95	
	CCOCn1c(=O)n(C2CCC2)c2cc(/C=N/N(C)C3=NS(=O)(=O)c4ccccc43)ccc21 [Ex 116, 3-cyclobutyl-5-[(E)-[(1,1-dioxo-1,2-benzothiazol-3-yl)-methyl-hydrazono]methyl]-1-(ethoxymethyl)benzimidazol-2-one]	5.03	
